Reference: PubChem BioAssay AID2060488 (Molecular Pharmacology Branch, DTP, NCI, 2025)
Where “and” joins values, the source holds several entries; their conditions need not be identical. Equal values may be shown once.

Test system: 966289-007-R4-J1-PDC complex spheroid viability
Assay: Anticancer human tumor 966289-007-R4-J1-PDC patient-derived pancreatic adenocarcinoma cell line growth inhibition [GQUAD]
Conditions: for viability, T/C: stronger effect = lower value
Excerpt: DNA G-quadruplex Stabilizer Agents in Combinations in Complex Spheroids
A high-throughput screen of multi-cell type tumor spheroids was designed to identify active combinations of DNA G-quadruplex stabilizer agents and targeted small molecules. Complex spheroids include a stromal component modeled by human endothelial cells (HUVEC) and fibroblasts modeled by human mesenchymal stem cells (MSCs). The concentration ranges selected for each drug and investigational agent were based upon clinically achievable concentrations if the clinical Cmax of the agent was known.
Compounds. The drugs and investigational agents: pidnarulex (CX-5461; NSC782164), APTO-253 (NSC789042), BRACO-19 (NSC847499), peposertib (NSC802822), ceralasertib (NSC780249), elimusertib (NSC800525), camonsertib (NSC841442), AZD-1390 (NSC803789), olaparib (NSC753686), talazoparib (NSC767125), ART-558 (NSC835418), sotorasib (NSC818433), MRTX-1133 (NSC836407), SN-38 (NSC673596), topotecan (NSC609699), etoposide (NSC141540), doxorubicin (NSC123127), gemcitabine (NSC613327), 5-fluorouracil (NSC19893), paclitaxel (NSC125973), vemurafenib (NSC761431), panobinostat (NSC761190), R-306465 (JNJ-16241199; NSC773264), adavosertib (NSC754352), TP-3654 (NSC805149), carboplatin (NSC241240), KSQ-4279 (NSC840948), and staurosporine (NSC755774) were obtained from the National Cancer Institute (NCI) Developmental Therapeutics Program Chemical Repository (34). The FDA-approved anticancer drug set is available from the NCI Developmental Therapeutics Program. […] The stock solutions were prepared in dimethyl sulfoxide (DMSO, Sigma-Aldrich, St. Louis, MO, cat. D2650) at 800-fold the tested concentration and stored at -70 degrees C prior to their use. All drugs and investigational agents were tested over a range starting from a high concentration at or near the clinical Cmax and decreasing in half-log increments. If the clinical Cmax for an agent had not been determined, the highest concentration tested was 10 microM.
2.3 Cell Culture. All cells were maintained in an incubator at 37 degrees C and 5% CO2 with 95% humidity. The PDC lines were cultured according to standard operating procedures established by the NCI PDMR. All PDCs were thawed and cultured in Matrigel-coated flasks prepared with a working solution of 1X Ham's F-12 nutrient mix, without supplementation (Invitrogen, cat. 11765054), 100 U/mL penicillin-streptomycin (Invitrogen, cat. 15140122), and 2.5% Matrigel (Corning Inc., cat. 354248) for the first three passages. The 857933-349-R-J2-PDC line was cultured in 6C/Colon 1B media, which includes advanced DMEM/F-12 (Thermo Fisher Scientific, cat. 12634028), 10 mM HEPES (Thermo Fisher Scientific, cat. 15630080), 1X GlutaMAX supplement (Thermo Fisher Scientific, cat. 35050061), 0.1 mg/mL primocin (InvivoGen, cat. ant-pm-2), 10% defined fetal bovine serum, heat inactivated (HyClone Laboratories Inc., cat. SH30070.03HI), 50% L-WRN conditioned media (ATCC, cat. CRL-3276), 1.25 mM N-Acetyl-L-cysteine (Sigma-Aldrich, cat. A9165), 10 mM nicotinamide (Sigma-Aldrich, cat. N0636), 1X B-27 supplement (Thermo Fisher Scientific, cat. 17504044), 1X N-2 supplement (Thermo Fisher Scientific, cat. 17502048), 10 microM Y-27632 dihydrochloride (Tocris Bioscience, cat. 1254), and 50 ng/mL human EGF recombinant protein (Thermo Fisher Scientific, cat. PHG0311). The 485176-168-R4-J1-PDC line was cultured in Panc media, which includes all 6C/Colon 1B media components plus 100 ng/mL human FGF-10 (Thermo Fisher Scientific, cat. 100-26), 500 nM SB-431542 (Selleckchem, cat. S1067), and gastrin (Tocris, cat. 3006).
[…]

[1] = compound alone, run of 03/18/2024
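Note: spheroids exposed to the agents for seven days before readout.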
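Throughout, for viability, T/C: percent viability relative to DMSO vehicle control wells taken as 100%.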

| Structure (SMILES) | viability, T/C (compound 0.0316 µM) | viability, T/C (compound 0.1 µM) | viability, T/C (compound 0.316 µM) | viability, T/C (compound 1 µM) | viability, T/C (compound 3.16 µM) | viability, T/C (compound 10 µM) | IC50 (curve of compound) | IC50 [1] | IC50 (compound alone, run of 03/26/2024) [nM] | viability, T/C (compound 0.000999 µM) | viability, T/C (compound 0.00316 µM) | viability, T/C (compound 0.00999 µM) | viability, T/C (compound 0.0999 µM) |
| --- | --- | --- | --- | --- | --- | --- | --- | --- | --- | --- | --- | --- | --- |
| COc1cc(C2c3cc4c(cc3C(OC3OC5COC(C)OC5C(O)C3O)C3COC(=O)C23)OCO4)cc(OC)c1O (stereo unspecified) | 106% (2×) and 108% | 108% and 111% and 110% | 41.2% and 40.8% and 50.3% | 5.14% and 5.7% and 8.75% | 1.52% and 0.98% and 2.8% | 0.83% and 0.61% and 0.86% | 271 nM and 320 nM |  |  |  |  |  |  |
| COc1ccc([C@@H](O)c2cc(-c3ncnc4cc(N5CCOCC5)ccc34)c(F)cc2Cl)nn1 | 103% and 98.9% and 97.2% | 92.9% and 100% and 92% | 110% and 106% and 105% | 103% (2×) and 108% | 113% and 110% and 126% | 90.2% and 103% and 108% | > 10000 nM |  |  |  |  |  |  |
| COc1cccc2c1C(=O)c1c(O)c3c(c(O)c1C2=O)CC(O)(C(=O)CO)CC3OC1CC(N)C(O)C(C)O1 (stereo unspecified) | 112% and 114% and 102% | 12.9% and 19.6% and 8.98% | 3.19% and 2.75% and 1.72% | 0.71% and 0.91% and 0.56% | 0.27% and 0.41% and 0.16% | 0.4% and 0.47% and 0.34% | 65 nM and 69 nM and 60.2 nM |  |  |  |  |  |  |
| COc1ncnc(C2CC2)c1-c1ncc2cnn(Cc3ccc(-c4nc(C(F)(F)F)cn4C(C)C)cc3)c2n1 | 92.2% and 102% and 104% | 102% and 103% and 100% | 101% and 102% and 100% | 107% and 98% and 97% | 103% and 106% (2×) | 116% and 108% (2×) | > 10000 nM |  |  |  |  |  |  |
| Cc1[nH]c2ccc(F)cc2c1-c1nc2c3cccnc3c3ncccc3c2[nH]1 | 104% [middle of 11 runs] | 108% [middle of 11 runs] | 109% [middle of 11 runs] | 109% [middle of 11 runs] | 106% [middle of 11 runs] | 98.2% [middle of 11 runs] |  | > 10000 nM | > 10000 |  |  |  |  |
| Cc1[nH]c2ccccc2c1CCNCc1ccc(/C=C/C(=O)NO)cc1 | 100% and 97.8% and 99.5% |  | 4.6% and 4.59% and 3.46% |  |  |  | 73 nM and 71.1 nM and 63.4 nM |  |  | 110% and 92.2% and 99.7% | 100% and 103% and 113% | 104% and 91% and 101% | 31.1% and 30.7% and 17.7% |
| Cc1cccc(N(C)C(=O)C2C(O)CCN2c2nc(C)cc(C(F)(F)F)c2C#N)c1 (stereo unspecified) | 92% and 111% and 99.9% | 98.4% and 97.2% and 95.8% | 103% (2×) and 109% | 94.9% and 98% and 99.5% | 107% and 106% and 89.2% | 102% and 107% (2×) | > 10000 nM |  |  |  |  |  |  |
| Cc1cnc(CNC(=O)c2c(=O)c3ccc(N4CCCN(C)CC4)nc3n3c2sc2ccccc23)cn1 |  | 36.7% [middle of 12 runs] | 12.6% [middle of 12 runs] | 6.91% [middle of 11 runs] | 5.45% [middle of 11 runs] | 0.16% [middle of 11 runs] |  | 81.7 nM [middle of 11 runs] |  |  |  |  |  |
| Cn1ncnc1[C@H]1c2n[nH]c(=O)c3cc(F)cc(c23)N[C@@H]1c1ccc(F)cc1 | 92.4% and 104% and 99.6% |  | 22.8% and 22.4% and 18% |  |  |  | 96.1 nM and 168 nM and 91.9 nM |  |  | 105% and 99.3% and 95.6% | 91.2% and 98.8% and 98.2% | 113% and 105% and 112% | 48.8% and 72.8% and 46.1% |
| Nc1ccn(C2OC(CO)C(O)C2(F)F)c(=O)n1 (stereo unspecified) | 6.63% and 12% and 8.01% | 0.75% and 1.27% and 0.79% | 0.96% and 0.9% and 0.65% | 0.7% and 0.97% and 0.68% | 0.83% and 1.32% and 0.61% | 0.79% and 1.07% and 0.63% | < 31.6 nM |  |  |  |  |  |  |
| O=C(NO)c1cnc(N2CCN(S(=O)(=O)c3ccc4ccccc4c3)CC2)nc1 | 104% and 97% and 89.4% | 104% (2×) and 99.9% | 33.4% and 39% and 70% | 7.89% and 9.13% and 14.1% | 1.55% and 1.2% and 4.88% | 0.4% and 0.34% and 0.29% | 241 nM and 258 nM and 480 nM |  |  |  |  |  |  |
| O=C(c1cc(Cc2n[nH]c(=O)c3ccccc23)ccc1F)N1CCN(C(=O)C2CC2)CC1 | 111% and 99.1% and 104% | 98.8% and 108% and 98.4% | 109% and 105% and 111% | 106% and 108% and 112% | 67.5% and 82.8% and 61.1% | 11.2% and 10.4% and 14.9% | 4520 nM and 5320 nM and 4180 nM |  |  |  |  |  |  |
| O=c1[nH]cc(F)c(=O)[nH]1 | 102% and 98.6% and 93.7% | 102% and 85.7% and 101% | 14% and 12.6% and 16.4% | 6.4% and 6.04% and 6.66% | 6.46% and 5.66% and 4.89% | 6.43% and 6.71% and 6.08% | 197 nM and 176 nM and 196 nM |  |  |  |  |  |  |
